Measurements as given in the NIST ThermoML archive (doi:10.1021/je800463k).

Assay: mn = molality of the nth substance listed, in mol/kg
Conditions: 101 kPa, Liquid; for mass density: Pycnometric method; for electrical conductivity: Frequency=0.001 MHz, Alternating current cell with electrodes; for speed of sound: Frequency=2 MHz

O=[N+]([O-])[O-].O=[N+]([O-])[O-].[Mg+2] [magnesium nitrate] + CO
Conditions	electrical conductivity [S/m]	mass density [kg/m3]	speed of sound [m/s]	viscosity [mPa·s]
301.25 K, m1 = 0.4024	–	827.04	–	–
301.3 K, m1 = 0.0082	–	785.69	–	–
301.4 K, m1 = 0.2776	–	814.59	–	–
301.4 K, m1 = 1.71	–	952.09	–	–
302.05 K, m1 = 0.0545	–	790.26	–	–
302.2 K, m1 = 0.4555	–	830.9	–	–
302.25 K, m1 = 0.782	–	868.46	–	–
302.45 K, m1 = 0.1047	–	796.51	–	–
302.55 K, m1 = 1.004	–	883.47	–	–
302.7 K, m1 = 0.6276	–	848.25	–	–
302.7 K, m1 = 1.259	–	910.86	–	–
302.85 K, m1 = 1.875	–	961.69	–	–
303.15 K, m1 = 0.0082	0.1462	783.99	1091.9	0.5215
303.15 K, m1 = 0.0545	0.4108	–	1098.1	0.5545
303.15 K, m1 = 0.0667	0.4481	–	1096.9	0.5716
303.15 K, m1 = 0.1047	0.5889	–	1102.5	0.5909
303.15 K, m1 = 0.2776	1.123	–	1121.5	0.6836
303.15 K, m1 = 0.4024	1.41	–	1132.5	0.7943
303.15 K, m1 = 0.4555	1.489	–	1139.1	0.8264
303.15 K, m1 = 0.6276	1.775	–	1155.5	1.05
303.15 K, m1 = 0.782	1.979	–	1172.9	1.177
303.15 K, m1 = 0.881	2.037	–	1179.3	1.184
303.15 K, m1 = 0.9116	2.054	–	1182.3	1.245
303.15 K, m1 = 1.004	2.136	–	1196.9	1.354
303.15 K, m1 = 1.259	2.213	–	1219.1	1.875
303.15 K, m1 = 1.492	2.223	–	1243	2.267
303.15 K, m1 = 1.71	2.246	–	1263.7	2.73
303.15 K, m1 = 1.875	2.217	–	1272.7	3.138
303.25 K, m1 = 0.4024	–	825.26	–	–
303.4 K, m1 = 0.2776	–	812.83	–	–
303.4 K, m1 = 1.492	–	932.03	–	–
303.75 K, m1 = 0.0545	–	788.57	–	–
303.85 K, m1 = 0.881	–	868.76	–	–
304 K, m1 = 0.0082	–	782.31	–	–
304.1 K, m1 = 0.782	–	866.62	–	–
304.2 K, m1 = 0.4555	–	829.11	–	–
304.25 K, m1 = 0.1047	–	794.8	–	–
304.35 K, m1 = 0.0667	–	789.8	–	–
304.65 K, m1 = 0.6276	–	846.53	–	–
304.65 K, m1 = 1.004	–	881.56	–	–
304.8 K, m1 = 1.259	–	908.91	–	–
304.9 K, m1 = 1.71	–	949.01	–	–
304.95 K, m1 = 0.0082	–	780.67	–	–
305.05 K, m1 = 0.4024	–	823.53	–	–
305.15 K, m1 = 0.0667	–	789.04	–	–
305.25 K, m1 = 0.2776	–	811.08	–	–
305.55 K, m1 = 0.0545	–	786.97	–	–
306 K, m1 = 1.875	–	958.63	–	–
306.6 K, m1 = 0.0082	–	778.26	–	–
306.7 K, m1 = 1.492	–	929.13	–	–
306.75 K, m1 = 1.004	–	879.67	–	–
306.8 K, m1 = 0.4024	–	821.82	–	–
306.8 K, m1 = 0.881	–	866.06	–	–
306.85 K, m1 = 0.0667	–	787.33	–	–
306.85 K, m1 = 0.1047	–	792.32	–	–
306.9 K, m1 = 1.259	–	907.07	–	–
306.95 K, m1 = 0.4555	–	826.52	–	–
307.1 K, m1 = 1.71	–	947.08	–	–
307.15 K, m1 = 0.2776	–	809.38	–	–
307.15 K, m1 = 0.782	–	863.84	–	–
307.25 K, m1 = 0.0545	–	785.27	–	–
307.55 K, m1 = 0.6276	–	843.81	–	–
308.15 K, m1 = 0.0082	0.1518	–	1075.4	0.486
308.15 K, m1 = 0.0545	0.4242	–	1082.1	0.5169
308.15 K, m1 = 0.0667	0.4649	–	1083.3	0.5321
308.15 K, m1 = 0.1047	0.6114	–	1086	0.5501
308.15 K, m1 = 0.2776	1.172	–	1106.2	0.6334
308.15 K, m1 = 0.4024	1.476	–	1116.1	0.7332
308.15 K, m1 = 0.4555	1.559	–	1122.4	0.7633
308.15 K, m1 = 0.6276	1.867	–	1139.5	0.9449
308.15 K, m1 = 0.782	2.089	–	1157.4	1.077
308.15 K, m1 = 0.881	2.154	–	1163.7	1.083
308.15 K, m1 = 0.9116	2.173	–	1165.8	1.135
308.15 K, m1 = 1.004	2.266	–	1180.7	1.233
308.15 K, m1 = 1.259	2.359	–	1200	1.694
308.15 K, m1 = 1.492	2.396	–	1227	2.044
308.15 K, m1 = 1.71	2.421	–	1247.8	2.433
308.15 K, m1 = 1.875	2.395	–	1256.6	2.765
308.35 K, m1 = 1.875	–	956.57	–	–
308.55 K, m1 = 0.0667	–	785.71	–	–
308.6 K, m1 = 0.4024	–	820.2	–	–
